# Results reported in US12697326B2, “Methods of treating hepatic encephalopathy” (SALIX PHARMACEUTICALS, INC., priority 2008, dated 2026).
# Several values for one entry are separate records, joined by “and”; a condition that tells them apart may be missing. Equal values may be shown once.
# Experiments:
# [1] = system: Conn score (mental state grade) in subjects with HE; experiment: Time to any increase from baseline in Conn score, first study; type: in vivo, human
# From the text: Measurements of change in mental status may be done, for example, by the Conn score (also known as the West Haven score). The Conn score has been widely used as a measure of mental state in HE studies and is based on the criteria of Parsons-Smith as modified by Conn. Asterixis will not be considered when assessing the subject's status using the Conn scoring criteria listed below.
# The scale used in the Conn scoring system is provided below. • Grade 0=No personality or behavioral abnormality detected • Grade 1=Trivial lack of awareness, euphoria or anxiety; shortened attention span; impairment of addition or subtraction • Grade 2=Lethargy; disorientation for time; obvious personality change; inappropriate behavior • Grade 3=Somnolence to semi-stupor, responsive to stimuli; confused; gross disorientation; bizarre behavior • Grade 4=Coma; unable to test mental state
# FIG. 11 illustrates time to any increase from baseline in Conn score by treatment group in the ITT population. Table 20 presents estimates of the proportions of subjects who had any increase in Conn score over the course of the Treatment Period and results of statistical analyses. Subjects who discontinued prior to experiencing an increase in Conn score and prior to completion of the 6-month treatment period were censored at the time of discontinuation.
# [2] = clinical; details: human, in vivo
# [3] = system: critical flicker frequency in subjects with HE; experiment: Critical flicker frequency (CFF) test, change from baseline, first study; type: in vivo, human
# Procedure: The critical flicker frequency (CFF) was assessed for each subject using a specialized CFF instrument. The CFF is the frequency at which the subject observes a constant light transition to a flickering light and is measured in Hertz (Hz). CFF is an objective assessment of mental status.
# The CFF was measured on a continuous scale and was the mean of 8 separate fusion-to-flicker transition tests performed in rapid succession.
# Mean values and mean changes from baseline in blood ammonia concentration and critical flicker frequency values were collected. Analyses of blood ammonia concentrations and critical flicker frequency values were based upon quantitative values (not qualitative grades). Treatment differences for mean change from baseline in these parameters was estimated using a mixed effects model with fixed effects for time and baseline value.
# A critical flicker frequency (CFF) assessment, a recognized quantitative measure of CNS dysfunction, was an efficacy endpoint in the first study. CFF tests utilize the correlation between cerebral processing of oscillatory visual stimuli and CNS impairment due to increased HE severity.^10,11,12,13 This test identifies a frequency at which a flickering light is perceived as steady. A decline in this frequency has been associated with increasing severity of HE. Likewise, elevation in blood ammonia, another endpoint in the first study, is a quantitative assessment associated with the CNS effects underlying overt HE.
# [4] = system: all-cause hospitalization in subjects with HE; experiment: All-cause hospitalization, first study; type: in vivo, human
# [5] = in vitro; details: human, in vivo
# [6] = human, in vivo
# [7] = system: Conn score and asterixis grade in subjects with HE; experiment: Changes from baseline in Conn scores and asterixis grades, second study; type: in vivo, human
# From the text: Normalizing for subject exposure, this represents a hospitalization rate of 0.60 event/PEY. A total of 59 were hospitalized due HE episodes (e.g., HE-caused). Normalizing for subject exposure, this represents an HE-caused hospitalization rate of 0.29 event/PEY. […] All subjects were capable of worsening over time, and 24/266 subjects (9.0%) did so by 1 or 2 grades.
# The last visit for the second study is the last visit recorded for the interim analysis.
# [8] = system: patients with HE; details: 6-month study; rifaximin 1200 mg/day, neomycin 3 g/day; 14 days on, 14 days off per month; cited from earlier work
# [9] = system: HE-caused hospitalization in subjects with HE; experiment: HE-caused hospitalization, first study; type: in vivo, human
# From the text: FIG. 5 illustrates time to first HE-caused hospitalizations by treatment group in the first study. […] Note for FIG. 10, the survival distribution estimate on y-axis represents the proportion of subjects without HE-caused hospitalizations. Dashed line represents rifaximin group and solid line represents placebo group. Open circles and open triangles represent censored subjects. Subjects who discontinued prior to hospitalization were censored at the time of discontinuation.
# [10] = system: Staphylococcus, Streptococcus, Enterococcus, and Enterobacteriaceae; details: cited from earlier work
# [11] = any increase from baseline in Conn score, 550 mg BID, N = 140, Days >=168
# [12] = any increase from baseline in Conn score; 550 mg BID; N = 140; Days [0-28)
# [13] = any increase from baseline in Conn score; 550 mg BID; N = 140; Days [28-56)
# [14] = any increase from baseline in Conn score; 550 mg BID; N = 140; Days [56-84)
# [15] = any increase from baseline in Conn score; 550 mg BID; N = 140; Days [84-140)
# [16] = any increase from baseline in Conn score; 550 mg BID; N = 140; Days [140-168)
# [17] = first study, ITT, first increase in Conn score, N = 140, treatment interval 0 to <28 days
# [18] = first study, ITT, first increase in Conn score, N = 140, treatment interval 28 to <56 days
# [19] = first study, ITT, first increase in Conn score, N = 140, treatment interval 56 to <84 days
# [20] = first study, ITT, first increase in Conn score, N = 140, treatment interval 84 to <140 days
# [21] = first study, ITT, first increase in Conn score, N = 140, treatment interval 140 to <168 days
# [22] = first study, ITT, first increase in Conn score, N = 140, treatment interval ≥168 days
# [23] = 550 mg BID, Baseline to Day 140
smiles,measurement,setting,value
CO[C@H]1/C=C/O[C@@]2(C)Oc3c(C)c(O)c4c(O)c(c5c(nc6cc(C)ccn65)c4c3C2=O)NC(=O)/C(C)=C\C=C\[C@H](C)[C@H](O)[C@@H](C)[C@@H](O)[C@@H](C)[C@H](OC(C)=O)[C@@H]1C [Rifaximin],Cumulative Occurrences of Events,[1]; [11],37
same,Occurrences of Events,[1]; [11],1
same,Survival,[1]; [11],0.7302
same,Cumulative Occurrences of Events,[1]; [12],17
same,Occurrences of Events,[1]; [12],17
same,Survival,[1]; [12],1.0000
same,Cumulative Occurrences of Events,[1]; [13],22
same,Occurrences of Events,[1]; [13],5
same,Survival,[1]; [13],0.8777
same,Cumulative Occurrences of Events,[1]; [14],31
same,Occurrences of Events,[1]; [14],9
same,Survival,[1]; [14],0.8407
same,Cumulative Occurrences of Events,[1]; [15],36
same,Occurrences of Events,[1]; [15],5
same,Survival,[1]; [15],0.7713
same,Cumulative Occurrences of Events,[1]; [16],36
same,Occurrences of Events,[1]; [16],0
same,Survival,[1]; [16],0.7302
same,Cummulative number of events,[1]; [17],17
same,Number of events,[1]; [17],17
same,Probability of no increase in Conn score,[1]; [17],1.0000
same,Cummulative number of events,[1]; [18],22
same,Number of events,[1]; [18],5
same,Cummulative number of events,[1]; [19],31
same,Number of events,[1]; [19],9
same,Cummulative number of events,[1]; [20],36
same,Number of events,[1]; [20],5
same,Cummulative number of events,[1]; [21],36
same,Number of events,[1]; [21],0
same,Cummulative number of events,[1]; [22],37
same,Number of events,[1]; [22],1
same,subjects with increases in Conn score (of 140),"[1]; first study, rifaximin group",37
same,"time to first increase in Conn scores vs placebo (FIG. 4, Kaplan Meier)",[1]; in vivo,increased time to the first increase in Conn scores
same,Cmax,[2],52.2 ng/mL and 66.4 nM
same,"Change from Baseline in Critical Flicker Frequency Test, Max",[3]; [23],12 Hz
same,"Change from Baseline in Critical Flicker Frequency Test, Mean",[3]; [23],1.4 Hz
same,"Change from Baseline in Critical Flicker Frequency Test, Median",[3]; [23],1.5 Hz
same,"Change from Baseline in Critical Flicker Frequency Test, Min",[3]; [23],−15 Hz
same,"Change from Baseline in Critical Flicker Frequency Test, Max","[3]; 550 mg BID, Baseline to EOT",11 Hz
same,"Change from Baseline in Critical Flicker Frequency Test, Mean","[3]; 550 mg BID, Baseline to EOT",0.9 Hz
same,"Change from Baseline in Critical Flicker Frequency Test, Median","[3]; 550 mg BID, Baseline to EOT",0.1 Hz
same,"Change from Baseline in Critical Flicker Frequency Test, Min","[3]; 550 mg BID, Baseline to EOT",−14 Hz
same,"Critical Flicker Frequency Test, Max","[3]; 550 mg BID, Day 140",49 Hz
same,"Critical Flicker Frequency Test, Min","[3]; 550 mg BID, Day 140",27 Hz
same,"Critical Flicker Frequency Test, Max","[3]; 550 mg BID, EOT",49 Hz
same,"Critical Flicker Frequency Test, Median","[3]; 550 mg BID, EOT",37.8 Hz
same,"Critical Flicker Frequency Test, Min","[3]; 550 mg BID, EOT",25 Hz
same,Mean changes (±SD) in CFF results,"[3]; first study, rifaximin group, baseline to end of treatment",0.945 (±4.75)
same,reduction in risk of all-cause hospitalization compared with placebo,[4],30%
same,subjects with all-cause hospitalization (of 140),[4]; rifaximin group,46
same,all-cause hospitalization rate,"[4]; rifaximin group, normalized for exposure",0.90 events/PEY
same,fraction unbound,[5],0.447
same,highest anticipated free plasma exposure,[6],0.03 µM
same,subjects with worsening of Conn score by 1 or 2 grades,[7]; 24/266 subjects,9.0%
same,incidence of worsening asterixis grades,"[7]; continuing rifaximin group, 6/70 subjects",8.6%
same,"subjects with 2-grade improvement in asterixis among those entering with scores of 1, 2 or 3","[7]; last visit, 4 subjects of 67",6.0%
same,"subjects with 3-grade improvement in asterixis among those entering with scores of 1, 2 or 3","[7]; last visit, 5 subjects of 67",7.5%
same,"subjects with 2-grade improvement in Conn score among those entering with Conn 1, 2, or 3","[7]; last visit, 7 subjects of 84",8.3%
same,"subjects with 1-grade improvement in Conn score among those entering with Conn 1, 2, or 3","[7]; last visit, 47 subjects of 84",56.0%
same,incidence of worsening asterixis grades,"[7]; new rifaximin group, 12/196 subjects",6.1%
same,"efficacy in patients with HE, rifaximin versus neomycin",[8],comparable efficacy
same,reduction in risk of HE-caused hospitalization compared with placebo,[9]; 6-month treatment period,56%
same,HE-caused hospitalization rate,[9]; rifaximin group,0.30 events/PEY
same,subjects with HE-caused hospitalizations (of 140),[9]; rifaximin group,15
same,"in vitro activity against species of Staphylococcus, Streptococcus, Enterococcus, and Enterobacteriaceae",[10],active
